One compound from doi:10.1101/2024.07.24.604796 (bioRxiv, 2024) can be followed below.

The test has as its target full-length FhlA (Escherichia coli, UniProt P19323). The format is binding. The settings on record: 32 uM protein; 10 mM Tris pH 8, 100 mM NaCl, 5 mM MgCl2, on ice; labelled compound.

Chain of full-length FhlA (P19323 whole entry): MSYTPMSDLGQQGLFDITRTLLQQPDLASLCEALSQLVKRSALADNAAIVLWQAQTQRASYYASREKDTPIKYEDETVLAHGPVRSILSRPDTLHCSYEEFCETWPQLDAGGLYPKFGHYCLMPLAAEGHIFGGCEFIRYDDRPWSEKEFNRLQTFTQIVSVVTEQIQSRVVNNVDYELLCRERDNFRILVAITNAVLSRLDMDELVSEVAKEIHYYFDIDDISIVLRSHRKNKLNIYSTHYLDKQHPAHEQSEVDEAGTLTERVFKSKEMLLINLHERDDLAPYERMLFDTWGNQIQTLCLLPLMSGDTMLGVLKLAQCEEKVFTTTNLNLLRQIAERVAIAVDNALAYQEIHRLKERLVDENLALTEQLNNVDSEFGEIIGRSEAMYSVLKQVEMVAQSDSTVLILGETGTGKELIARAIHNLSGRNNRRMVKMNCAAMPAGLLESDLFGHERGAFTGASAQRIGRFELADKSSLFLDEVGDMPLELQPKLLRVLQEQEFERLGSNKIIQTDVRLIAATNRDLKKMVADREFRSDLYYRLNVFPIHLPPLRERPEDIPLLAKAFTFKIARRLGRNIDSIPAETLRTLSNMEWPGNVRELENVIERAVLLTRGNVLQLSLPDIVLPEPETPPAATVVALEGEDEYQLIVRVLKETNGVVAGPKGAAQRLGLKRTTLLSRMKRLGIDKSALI

Take `O=CO` [formate]: the “14C-formate DRaCALA” value was “DRaCALA with full-length purified FhlA, and full-length E183K and E363K derivatives produced similar pattern”.
